Results taken from patent publication US10239871B2, “Compounds and methods for regulating integrins” (ADHAERE PHARMACEUTICALS, INC., priority 2012, dated 2019).

How the values were obtained:
Cl66 cells = test: Cl66 tumor re-growth after irradiation; type: in vivo, mice
Procedure: Data shown are means±SEM. *, P<0.05; **, P<0.001 (by one-way ANOVA). In this experiment, four groups of tumor-bearing animals were used (n=11/group): 1) Treatment with saline alone (red line), 2) Treatment with leukadherins LA1 alone (orange line), 3) Treatment with a single dose of 20 Gy irradiation (two 10%+10% vertices) alone (black line) and 4) Treatment with a single dose of 20 Gy irradiation and then daily LA1 (at −2 hours) (blue line). The syngeneic murine mammary adenocarcinoma cell line Cl66 (moderately metastatic and is related to the highly metastatic 4T1 cell line) was orthotopically introduced in Balb/c animals, by injecting approximately 5×10^5 Cl66 cells under the left mammary fat pad of WT BALB/c mice (approximately 10 weeks old). The tumor size was measured using calipers every other day until the end of the experiment (approximately 5 weeks). 7-days post implantation, the tumors in all animals became palpable, with an average size of ˜100 mm3. At that time, animals in groups 3 and 4 were treated with irradiation. Animals in group 4 received LA1, starting at 2 hours prior to irradiation. […]
A syngeneic xenograft model was used to address the effects of inflammatory cell recruitment on tumor cell re-growth after radio-therapy. […] The tumor size was measured using calipers every other day until the end of the experiment (approximately 5 weeks). […]

[1] = system: balloon-induced arterial injury; test: Balloon-induced arterial injury in rats (neointima); type: in vivo, rat
Procedure: All surgeries were performed under anesthesia by isoflurane (Baxter). Activating mAb ED7 (4 mg/kg/d), the isotype control mIgG1 (4 mg/kg/d, Rockland) and the leukadherin LA1 (1 mg/kg/d) were each administered intra peritoneally (i.p.) in saline daily until the end of the experiment. Balloon injury in the right iliac artery was inflicted with a 2F Fogarty catheter (Baxter) adapted to a custom angiographic kit (Boston Scientific, Scimed). An aortotomy in the abdominal aorta was made to insert a catheter to the level of the right iliac artery. The balloon was inflated to 1.5 to 1.6 atmospheres and retracted to the arteriotomy site three times. The aortic excision was repaired with eight sutures. The abdominal cavity was closed by planes with an interrupted suture pattern. Arterial specimens were collected 21 days after injury and fixed in 4% formalin-PBS (Sigma-Aldrich) for 5 minutes and analyzed by histology and immunostaining. Neointima were measured in H&E stained slides using ImagePro.
Despite significant technological advances in PCI, restenosis (re-narrowing) secondary to neointimal hyperplasia remains a major complication limiting the success of coronary interventions in 5-25% of patients. The recruitment of inflammatory macrophages and other leukocytes precedes neointimal hyperplasia. The denudation of endothelial cell lining at the site of mechanical vascular injury during a PCI procedure leads to the deposition of fibrin and platelets, where selective binding between the platelet cell surface receptor GP lb[…] and leukocytic CD11b/CD18 leads to the migration and recruitment of these inflammatory cells. Indeed, in experimental models, it has been shown that the genetic ablation of CD11b (CD11b−/− animals) or its blockade (using biological antagonists) can reduce neointima formation after angioplasty or stent implantation. […] Here, this experimental arterial balloon injury model was used to examine the relative efficacy of the two types of agonists, in a head-to-head comparison, on inflammatory responses in vivo. First, the dose-dependence of LA1 in this model system was determined. LA1 was administered at two different doses (0.05 or 1 mg/kg/d, intraperitoneal (i.p.)), or the vehicle (DMSO), in a saline solution to SD male rats 30 minutes prior to injury and continued daily injections for the next three weeks and subsequently measured the extent of vascular injury via tissue histology (FIGS. 14A-14D). Data shown are mean±SEM. *p<0.05, **p<0.001.
Next, in order to examine the relative efficacy of LA1 and ED7, LA1 (1 mg/kg/d) or ED7 (4 mg/kg/d) were administered to SD male rats 30 minutes prior to balloon injury and continued daily for the next 21 days. An isotype control antibody (mIgG1, 4 mg/kg/d) was administered to the control group of animals. […] Data shown are mean±SEM. *p<0.05, ***p<0.0001, ns=not significant.

[2] = system: Human Umbilical Vein Endothelial Cells; test: TUNEL assay, HUVEC co-cultured with LA1-activated neutrophils; type: cell-based; conditions: LA1-mediated adhesion of neutrophils
Source text: In support of this argument, neither we nor others studying knock-in animals that express constitutively active mutants of integrins LFA-1 [54, 55] and […]4[…]7 [56] have observed any signs of vascular injury in any experimental model. FIGS. 22A-22E show an absence of apoptosis in co-cultures of LA-1 activated leukocytes and HUVEC cells.

[3] = LA1 1 mg/kg/d, ED7 4 mg/kg/d, 21 days

O=C(O)c1ccc(-c2ccc(/C=C3\SC(=S)N(Cc4ccccc4)C3=O)o2)cc1 [LA1]
rate of tumor growth, LA1 alone without irradiation (Cl66 cells; similar to irradiation alone): reduced rate of tumor growth
rate of tumor growth post-irradiation (Cl66 cells; single dose 20 Gy plus LA1 from -2 hours): significant reduction in the rate of tumor growth post-irradiation
neointimal hyperplasia vs vehicle ([1]; 0.05 or 1 mg/kg/d i.p., three weeks, SD male rats): significantly less neointimal hyperplasia
dose dependence of reduction in mechanical vascular injury ([1]; 0.05 vs 1 mg/kg/d i.p.): dose-dependent reduction
neointima formation compared to the ED7 group ([1]; LA1 1 mg/kg/d vs ED7 4 mg/kg/d, 21 days): significantly less neointima formation
neointimal hyperplasia (NIH) / mechanical vascular injury, significance vs control group [1, 3]: significant reduction in neointimal hyperplasia
neointimal thickening vs control mAb IgG1-treated group [1, 3]: reduced neointimal thickening
HUVEC apoptosis (TUNEL) [2]: does not increase HUVEC apoptosis
